In the CheMixHub viscosity set:

Test: xn = mol fraction of the nth substance listed

NCCCN + CC(O)CO
viscosity [mPa·s], 101.3 kPa
Conditions	293.15 K	298.15 K	303.15 K	308.15 K	313.15 K	318.15 K
x2 = 0.0488	2.44	2.19	1.92	1.68	1.48	1.32
x2 = 0.0977	3.15	2.8	2.43	2.08	1.82	1.58
x2 = 0.1467	3.95	3.45	2.97	2.51	2.17	1.91
x2 = 0.1958	5.23	4.5	3.79	3.17	2.7	2.34
x2 = 0.2451	6.85	5.81	4.87	4	3.36	2.88
x2 = 0.2945	9.15	7.62	6.28	5.09	4.2	–
x2 = 0.3441	12.3	10	8.12	6.48	5.29	–
x2 = 0.3937	17	13.6	10.8	8.39	6.74	–
x2 = 0.4435	22.8	17.9	14	10.7	8.55	–
x2 = 0.4934	30	23.2	17.9	13.6	10.6	–
x2 = 0.5435	38.5	29.3	22.2	16.7	12.9	–
x2 = 0.5937	47.4	35.8	27	20.1	15.4	–
x2 = 0.644	55.5	41.8	31.4	23.2	17.6	–
x2 = 0.6945	62.5	46.9	35.1	25.9	19.7	–
x2 = 0.745	67.1	50.3	37.8	27.8	21.2	–
x2 = 0.7958	69	51.8	38.8	28.8	21.9	–
x2 = 0.8466	68.9	51.9	39	28.9	22	–
x2 = 0.8976	66.1	50	37.7	28.1	21.5	–
x2 = 0.9487	62.3	47.1	35.7	26.8	20.5	–

COCCOCCOC + CCCO
viscosity [mPa·s]
Conditions	298.15 K	308.15 K	318.15 K
101 kPa, x1 = 0.0121	1.856	1.451	–
101 kPa, x1 = 0.0768	1.559	1.243	–
101 kPa, x1 = 0.1011	1.451	1.173	0.956
101 kPa, x1 = 0.1288	1.399	1.144	–
101 kPa, x1 = 0.1895	1.272	1.052	–
101 kPa, x1 = 0.1997	1.243	1.021	0.847
101 kPa, x1 = 0.2359	1.213	1.004	–
101 kPa, x1 = 0.2801	1.183	0.971	–
101 kPa, x1 = 0.3029	1.115	0.927	0.779
101 kPa, x1 = 0.3162	1.133	0.951	–
101 kPa, x1 = 0.3322	1.12	0.939	–
101 kPa, x1 = 0.3923	1.08	0.918	–
101 kPa, x1 = 0.4025	1.046	0.878	0.743
101 kPa, x1 = 0.4477	1.051	0.899	–
101 kPa, x1 = 0.4978	1.032	0.886	–
101 kPa, x1 = 0.5004	1.01	0.852	0.729
101 kPa, x1 = 0.5784	1.011	0.871	–
101 kPa, x1 = 0.5992	0.988	0.838	0.717
101 kPa, x1 = 0.6325	1.003	0.854	–
101 kPa, x1 = 0.6934	0.975	0.828	0.709
101 kPa, x1 = 0.7544	0.991	0.86	–
101 kPa, x1 = 0.8004	0.971	0.825	0.709
101 kPa, x1 = 0.813	0.991	0.862	–
101 kPa, x1 = 0.8974	0.981	0.836	–
101 kPa, x1 = 0.9026	0.993	0.863	–
101 kPa, x1 = 0.9638	0.996	0.867	–
101 kPa, x2 = 0.0194	0.996	0.867	–
101.33 kPa, x1 = 0.0064	1.913	–	–
101.33 kPa, x1 = 0.0122	1.881	–	–
101.33 kPa, x1 = 0.0238	1.816	–	–
101.33 kPa, x1 = 0.0358	1.756	–	–
101.33 kPa, x1 = 0.0546	1.671	–	–
101.33 kPa, x1 = 0.0803	1.567	–	–
101.33 kPa, x1 = 0.1176	1.443	–	–
101.33 kPa, x1 = 0.1632	1.333	–	–
101.33 kPa, x1 = 0.2064	1.251	–	–
101.33 kPa, x1 = 0.2619	1.177	–	–
101.33 kPa, x1 = 0.2976	1.14	–	–
101.33 kPa, x1 = 0.3254	1.119	–	–
101.33 kPa, x1 = 0.3716	1.086	–	–
101.33 kPa, x1 = 0.4168	1.065	–	–
101.33 kPa, x1 = 0.4652	1.038	–	–
101.33 kPa, x1 = 0.5109	1.024	–	–
101.33 kPa, x1 = 0.5509	1.009	–	–
101.33 kPa, x1 = 0.5982	0.994	–	–
101.33 kPa, x1 = 0.6569	0.984	–	–
101.33 kPa, x1 = 0.711	0.976	–	–
101.33 kPa, x1 = 0.7757	0.975	–	–
101.33 kPa, x1 = 0.819	0.976	–	–
101.33 kPa, x1 = 0.8649	0.977	–	–
101.33 kPa, x1 = 0.9094	0.984	–	–
101.33 kPa, x1 = 0.9425	0.989	–	–
101.33 kPa, x1 = 0.9722	0.988	–	–
